Assay results taken from PubChem BioAssay (NCI).
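A five-concentration, 48-hour dose response in 96-well plates underlies each endpoint, interpolated linearly between surrounding concentrations. Definition used: TGI = concentration required for complete inhibition of growth.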

Experiments:
Experiment in all cases: NCI tumour cell line growth inhibition, 48 h
[1] = system: 786-0 renal
[2] = system: A498 renal
[3] = system: A549 NSCLC
[4] = system: ACHN renal
[5] = system: BT-549 breast
[6] = system: CAKI-1 renal
[7] = system: CCRF-CEM leukemia
[8] = system: COLO 205 colon
[9] = system: DU-145 prostate
[10] = system: EKVX NSCLC
[11] = system: HCC-2998 colon
[12] = system: HCT-15 colon
[13] = system: HL-60(TB) leukemia
[14] = system: HOP-92 NSCLC
[15] = system: HS 578T breast
[16] = system: IGROV1 ovarian
[17] = system: K-562 leukemia
[18] = system: KM12 colon
[19] = system: LOX IMVI melanoma
[20] = system: M14 melanoma
[21] = system: MALME-3M melanoma
[22] = system: MCF7 breast
[23] = system: MDA-MB-231 breast
[24] = system: MDA-MB-435
[25] = system: MDA-N
[26] = system: MOLT-4 leukemia
[27] = system: NCI-H226 lung
[28] = system: NCI-H460 lung
[29] = system: NCI-H522 lung
[30] = system: NCI/ADR-RES ovarian
[31] = system: OVCAR-3 ovarian
[32] = system: OVCAR-4 ovarian
[33] = system: OVCAR-5 ovarian
[34] = system: OVCAR-8 ovarian
[35] = system: PC-3 prostate
[36] = system: RPMI-8226 leukemia
[37] = system: RXF 393 renal
[38] = system: SF-268 CNS
[39] = system: SF-295 CNS
[40] = system: SF-539 CNS
[41] = system: SK-MEL-2 melanoma
[42] = system: SK-MEL-28 melanoma
[43] = system: SK-MEL-5 melanoma
[44] = system: SN12C renal
[45] = system: SNB-19 CNS
[46] = system: SNB-75 CNS
[47] = system: SR leukemia
[48] = system: SW-620 colon
[49] = system: T-47D breast
[50] = system: TK-10 renal
[51] = system: U251 CNS
[52] = system: UACC-257 melanoma
[53] = system: UACC-62 melanoma
[54] = system: HCT-116 colon
[55] = system: HOP-62 NSCLC
[56] = system: HT29 colon
[57] = system: NCI-H23 lung
[58] = system: SK-OV-3 ovarian
[59] = system: UO-31 renal

Measured: TGI

Brc1c(C#CCC2CCCCC2)ccc(C#CCC2CCCCC2)c1Br
not listed: [54] | [55] | [56] | [57] | [58] | [59]
> 100 µM: all other assays above

C#CCOCC12C=CC(O1)C1C(=O)OCC12 (stereo not given)
not listed: [14] | [41]
> 100 µM: all other assays above
